#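 Values below derive from 48-hour exposures of cells grown in 96-well plates, with endpoints linearly interpolated between the two concentrations bracketing the appropriate inhibition level. TGI: total growth inhibition.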
# Legend:
# Assay in all cases: growth of human tumour cells (NCI), 48 h
# [1] = test system: MDA-N
# [2] = test system: RPMI-8226 leukemia
# [3] = test system: A498 renal
# [4] = test system: HT29 colon
# [5] = test system: SK-OV-3 ovarian
# [6] = test system: MDA-MB-435
# [7] = test system: SNB-75 CNS
# [8] = test system: M14 melanoma
# [9] = test system: IGROV1 ovarian
# [10] = test system: COLO 205 colon
# [11] = test system: BT-549 breast
# [12] = test system: U251 CNS
# [13] = test system: 786-0 renal
# [14] = test system: SK-MEL-5 melanoma
# [15] = test system: OVCAR-8 ovarian
# [16] = test system: UO-31 renal
# [17] = test system: SK-MEL-2 melanoma
SMILES,TGI [1] [µM],TGI [2] [µM],TGI [3] [µM],TGI [4] [µM],TGI [5] [µM],TGI [6] [µM],TGI [7] [µM],TGI [8] [µM],TGI [9] [µM],TGI [10] [µM],TGI [11] [µM],TGI [12] [µM],TGI [13] [µM],TGI [14] [µM],TGI [15] [µM],TGI [16] [µM],TGI [17] [µM]
O=C1c2cccnc2-c2nccc3c2c1nc1cc(Br)ccc13,0.732,0.448,0.0659,2.45,0.706,0.607,0.81,0.163,0.31,2.12,1.23,0.288,0.188,0.263,0.388,0.568,–
C=C(Cl)C(C)(Cl)CCC(Br)C(C)(C)Cl (stereo not drawn),33,50.6,> 100,29.5,39.2,39.9,33.5,34.7,90.9,31.8,47.2,29.8,31.3,30.8,–,29.3,37.6
O=C(O)/C=c1/c2ccccc2n2nc3ccccc3c12,> 100,70.1,46,> 100,65.7,> 100,–,> 100,> 100,33.5,> 100,> 100,> 100,30.4,60.8,> 100,> 100
CN1[C@@H]2C[C@@H](OC(=O)[C@H](CO)c3ccccc3)C[C@H]1[C@@H]1O[C@@H]12,> 100,> 100,> 100,> 100,> 100,> 100,–,> 100,> 100,> 100,> 100,–,> 100,> 100,> 100,> 100,> 100
C=C1C(=O)C=C[C@]2(C)CC[C@H]3C(=C)C(=O)O[C@@H]3[C@@H]12,16.6,5.87,13.5,3.24,21.2,3.21,–,3.96,4.28,2.24,9.85,5.75,3.28,5.93,17.2,9,6.99
CN1COCc2c1ccc1cc3ccc4c(c3nc21)COCN4S(C)(=O)=O,> 100,–,> 100,> 100,> 100,> 100,67.5,> 100,> 100,> 100,> 100,> 100,> 100,> 100,> 100,> 100,–
Cc1ccc(O)c(-c2cscn2)c1,> 100,> 100,70,> 100,> 100,> 100,–,> 100,> 100,> 100,> 100,–,> 100,> 100,> 100,> 100,> 100
O=c1oc2ccc([N+](=O)[O-])cc2c(Nc2ccc3c(c2)Oc2ccccc2O3)c1[N+](=O)[O-],> 100,70.2,–,> 100,> 100,> 100,> 100,> 100,> 100,40.2,> 100,38.7,67.9,76,> 100,> 100,44.2
CCOC(=O)C1C2CCC1CC(=NNc1ccc([N+](=O)[O-])cc1[N+](=O)[O-])C2 (stereo not drawn),> 50,> 50,–,> 50,> 50,> 50,> 50,> 50,> 50,> 50,> 50,> 50,> 50,> 50,> 50,> 50,> 50
NNC(=O)CSc1nc2ccccc2c(=O)n1N,> 100,> 100,> 100,> 100,–,> 100,33,> 100,> 100,> 100,> 100,89.3,57.4,> 100,> 100,> 100,66.9
CSc1cnc2ccccc2c1SC1CN(Cc2ccccc2)c2ccccc2C1=O (stereo not drawn),> 100,> 100,> 100,> 100,> 100,> 100,> 100,> 100,> 100,> 100,> 100,> 100,> 100,> 100,–,> 100,> 100

# Reference: PubChem BioAssay (NCI)
